The text below walks through data of the Kinase Knowledgebase extract (Sharma et al. 2016).

What is called IC50 is the concentration that inhibits the measured activity by half.

In one assay the target is PIK3CD (Human) (UniProt O00329). Kind of assay: Assessment of PIK3CD Kinase Activity.
Sequence of PIK3CD (Human) (O00329 whole entry, looked up): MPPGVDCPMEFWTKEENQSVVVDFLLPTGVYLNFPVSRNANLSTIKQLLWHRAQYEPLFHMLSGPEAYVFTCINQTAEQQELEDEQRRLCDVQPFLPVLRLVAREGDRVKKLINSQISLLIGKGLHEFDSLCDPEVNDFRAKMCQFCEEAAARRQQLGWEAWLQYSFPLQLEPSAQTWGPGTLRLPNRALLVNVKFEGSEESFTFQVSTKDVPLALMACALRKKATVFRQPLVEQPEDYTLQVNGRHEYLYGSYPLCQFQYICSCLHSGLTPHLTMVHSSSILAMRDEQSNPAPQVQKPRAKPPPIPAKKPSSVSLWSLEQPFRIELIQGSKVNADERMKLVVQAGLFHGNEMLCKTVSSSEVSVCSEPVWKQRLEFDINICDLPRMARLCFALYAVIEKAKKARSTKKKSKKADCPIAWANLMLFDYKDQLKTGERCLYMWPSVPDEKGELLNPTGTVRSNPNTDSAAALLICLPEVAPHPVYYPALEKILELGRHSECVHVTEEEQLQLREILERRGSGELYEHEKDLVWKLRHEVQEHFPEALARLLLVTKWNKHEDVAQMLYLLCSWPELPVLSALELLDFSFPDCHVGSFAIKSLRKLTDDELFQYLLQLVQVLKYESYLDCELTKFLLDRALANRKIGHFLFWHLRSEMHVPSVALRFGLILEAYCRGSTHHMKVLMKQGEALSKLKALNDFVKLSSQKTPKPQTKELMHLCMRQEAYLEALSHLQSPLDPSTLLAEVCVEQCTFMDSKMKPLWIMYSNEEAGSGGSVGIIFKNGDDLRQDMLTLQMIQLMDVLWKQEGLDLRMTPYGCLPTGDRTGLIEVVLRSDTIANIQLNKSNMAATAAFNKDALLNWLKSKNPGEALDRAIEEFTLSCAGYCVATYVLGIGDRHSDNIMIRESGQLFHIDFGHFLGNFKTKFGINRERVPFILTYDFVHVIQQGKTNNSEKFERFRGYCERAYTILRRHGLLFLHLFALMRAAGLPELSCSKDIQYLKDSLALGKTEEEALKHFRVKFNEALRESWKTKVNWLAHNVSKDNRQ
`CCc1nc2ccccc2n1-c1nc(N2CCOCC2)c2nc(CC3CN(C(C)(C)C(N)=O)C3)n(C)c2n1` yielded an IC50 of 1.08 nM. `CCc1nc2ccccc2n1-c1nc(N2CCOCC2)c2nc(C(=O)C3CCN(C(C)(C)C(=O)OC)CC3)n(C)c2n1` came in with an IC50 of 0.61 nM. Compared with the last molecule, the IC50 is about 1.8-fold lower.

The next assay deals with PIK3CA (human) (UniProt P42336). As to the kind of experiment: Assessment of PIK3CA Kinase Activity.
Sequence of PIK3CA (human) (P42336 whole entry, looked up): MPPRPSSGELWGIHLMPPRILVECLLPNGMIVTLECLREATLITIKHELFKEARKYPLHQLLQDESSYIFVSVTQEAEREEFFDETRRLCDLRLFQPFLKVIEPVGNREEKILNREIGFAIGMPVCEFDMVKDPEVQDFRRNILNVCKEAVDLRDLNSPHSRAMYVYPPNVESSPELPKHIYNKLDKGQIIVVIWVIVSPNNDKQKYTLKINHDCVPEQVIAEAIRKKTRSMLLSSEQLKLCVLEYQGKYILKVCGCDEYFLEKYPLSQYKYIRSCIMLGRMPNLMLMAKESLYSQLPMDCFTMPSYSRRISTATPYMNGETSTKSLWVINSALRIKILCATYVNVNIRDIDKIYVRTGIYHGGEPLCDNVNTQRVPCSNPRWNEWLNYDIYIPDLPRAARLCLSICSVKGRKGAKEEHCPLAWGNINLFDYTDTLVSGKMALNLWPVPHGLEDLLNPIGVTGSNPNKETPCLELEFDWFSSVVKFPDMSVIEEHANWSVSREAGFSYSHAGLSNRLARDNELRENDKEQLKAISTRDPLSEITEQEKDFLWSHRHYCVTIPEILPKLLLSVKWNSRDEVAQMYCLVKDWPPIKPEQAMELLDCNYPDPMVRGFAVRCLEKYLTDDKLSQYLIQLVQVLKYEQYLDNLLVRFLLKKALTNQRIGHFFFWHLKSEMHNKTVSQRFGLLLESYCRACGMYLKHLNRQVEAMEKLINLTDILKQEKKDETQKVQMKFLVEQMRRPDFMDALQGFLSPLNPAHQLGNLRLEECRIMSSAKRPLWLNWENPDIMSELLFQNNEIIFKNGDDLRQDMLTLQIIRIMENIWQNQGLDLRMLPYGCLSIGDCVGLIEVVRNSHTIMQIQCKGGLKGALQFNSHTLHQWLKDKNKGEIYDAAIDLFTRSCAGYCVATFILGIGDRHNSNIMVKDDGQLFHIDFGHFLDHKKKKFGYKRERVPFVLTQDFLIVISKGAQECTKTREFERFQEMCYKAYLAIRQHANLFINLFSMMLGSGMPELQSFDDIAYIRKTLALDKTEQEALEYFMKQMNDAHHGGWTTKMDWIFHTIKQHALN
The molecule `Cn1c(CN2CC(C3CCOCC3)C2)nc2c(N3CCOCC3)nc(-n3c(C4CC4)nc4ccccc43)nc21` showed an IC50 of 472 nM. In other words, the sub-micromolar range. `CC(C)c1nc2ccccc2n1-c1nc(N2CCOCC2)c2nc(-c3cccnc3)n(C)c2n1`: the IC50 stood at 190 nM. The molecule `c1cc(-c2nc(N3CCOCC3)c3sc(CN4CCC(N5CCOCC5)CC4)cc3n2)c2ccncc2c1` yielded an IC50 of 5350 nM. Against the preceding molecule, the IC50 is about 28-fold higher. The same measure, in the same setting: under `CCc1nc2ccccc2n1-c1nc(N2CCOCC2)c2nc(CC3CN(C4CCS(=O)(=O)CC4)C3)n(C)c2n1` stands 82.5 nM. Still for that read-out and setting: then `CCc1nc2ccccc2n1-c1nc(N2CCOCC2)c2nc(CC3CN(C(C)(C)C(N)=O)C3)n(C)c2n1`, with 104 nM; and `CC(C)c1nc2ccccc2n1-c1nc(N2CCOCC2)c2nc(CN3CCN(C(C)(C)CO)CC3)[nH]c2n1`, with 264 nM. Same read-out and setting: then `COC(C)(C)C1CCN(Cc2nc3c(N4CCOCC4)nc(-c4c(C)oc5ccccc45)nc3n2C)CC1`, with 1200 nM. With `CCc1nc2ccccc2n1-c1nc(N2CCOCC2)c2nc(CC(=O)N3CCC(C(C)(C)O)CC3)sc2n1`, the IC50 is 132 nM. Consider `CCc1nc2ccccc2n1-c1nc(N2CCOCC2)c2nc(C(=O)C3CCN(C(C)(C)C(=O)OC)CC3)n(C)c2n1`, for which the IC50 worked out at 83 nM. `CC(C)(C(N)=O)N1CCN(Cc2nc3c(N4CCOCC4)nc(-c4cncc5[nH]ccc45)nc3s2)CC1` returned an IC50 of 41.6 nM. Turning to `CC(C)(C(N)=O)N1CCN(Cc2nc3nc(-c4cccc5nccn45)nc(N4CCOCC4)c3s2)CC1`, the IC50 was 1500 nM. This IC50 lies about 36-fold higher than the previous one. `Cc1c(CN2CCN(C(C)(C)C(N)=O)CC2)sc2c(N3CCOCC3)nc(-c3cncc4[nH]ccc34)nc12` yielded an IC50 of 52.2 nM.

Regarding `CCc1nc2ccccc2n1-c1nc(N2CCOCC2)c2nc(CN3C[C@@H]4C[C@H]3CN4C(C)(C)CO)n(C)c2n1`, the IC50 amounted to 218 nM. This IC50 is about 4.2-fold higher than that of the molecule before. On the same count and under the same terms, then `CN(C)C1CCN(Cc2cc3nc(-c4ccc(O)c5nccn45)nc(N4CCOCC4)c3s2)CC1`, with 593 nM; and `Cc1nc2ccccc2n1-c1nc(N2CCOCC2)c2oc(CN3CCN(C(C)(C)C(N)=O)CC3)cc2n1`, with 175 nM; and `Cn1c(CN2CCC(C(C)(C)O)CC2)nc2c(N3CCOCC3)nc(-c3n[nH]c4ccccc34)nc21`, with 2790 nM. Same read-out and setting: then `CCc1nc2ccccc2n1-c1nc(N2CCOCC2)c2nc(CN3CCN(C(C)(C)CO)CC3)[nH]c2n1`, with 215 nM; and `CCc1nc2ccccc2n1-c1nc(N2CCOCC2)c2nc(CCN3CCOCC3(C)C)n(C)c2n1`, with 485 nM. Turning to `COc1cccc(-c2nc3c(N4CCOCC4)nc(-n4c(C(C)C)nc5ccccc54)nc3n2C)c1`, the IC50 was 729 nM. `Cn1c(CN2CCC(C(C)(C)O)CC2)nc2c(N3CCOCC3)nc(-c3cnc(N)c4ccccc34)nc21` displayed an IC50 of 245 nM.

`CN(C)C1CCN(Cc2cc3nc(-n4ccc5cnccc54)nc(N4CCOCC4)c3s2)CC1` returned an IC50 of 207 nM.
